Results published in US11952363B2, “Piperazine compounds for the treatment of autoimmune disease” (Hoffmann-La Roche Inc., priority 2018, dated 2024).

Experiments:
human TLR9 = biological target: T1, human TLR9 (Homo sapiens, UniProt Q9NR96); experiment: HEK293-Blue-hTLR-9 cells assay (SEAP reporter, ODN2006 stimulation); type: cell-based; settings: HEK293-Blue-hTLR9 cells, ODN2006 ligand, 20 hrs incubation; read-out: HEK/hTLR9 IC50
T1 sequence (Q9NR96 26-1032): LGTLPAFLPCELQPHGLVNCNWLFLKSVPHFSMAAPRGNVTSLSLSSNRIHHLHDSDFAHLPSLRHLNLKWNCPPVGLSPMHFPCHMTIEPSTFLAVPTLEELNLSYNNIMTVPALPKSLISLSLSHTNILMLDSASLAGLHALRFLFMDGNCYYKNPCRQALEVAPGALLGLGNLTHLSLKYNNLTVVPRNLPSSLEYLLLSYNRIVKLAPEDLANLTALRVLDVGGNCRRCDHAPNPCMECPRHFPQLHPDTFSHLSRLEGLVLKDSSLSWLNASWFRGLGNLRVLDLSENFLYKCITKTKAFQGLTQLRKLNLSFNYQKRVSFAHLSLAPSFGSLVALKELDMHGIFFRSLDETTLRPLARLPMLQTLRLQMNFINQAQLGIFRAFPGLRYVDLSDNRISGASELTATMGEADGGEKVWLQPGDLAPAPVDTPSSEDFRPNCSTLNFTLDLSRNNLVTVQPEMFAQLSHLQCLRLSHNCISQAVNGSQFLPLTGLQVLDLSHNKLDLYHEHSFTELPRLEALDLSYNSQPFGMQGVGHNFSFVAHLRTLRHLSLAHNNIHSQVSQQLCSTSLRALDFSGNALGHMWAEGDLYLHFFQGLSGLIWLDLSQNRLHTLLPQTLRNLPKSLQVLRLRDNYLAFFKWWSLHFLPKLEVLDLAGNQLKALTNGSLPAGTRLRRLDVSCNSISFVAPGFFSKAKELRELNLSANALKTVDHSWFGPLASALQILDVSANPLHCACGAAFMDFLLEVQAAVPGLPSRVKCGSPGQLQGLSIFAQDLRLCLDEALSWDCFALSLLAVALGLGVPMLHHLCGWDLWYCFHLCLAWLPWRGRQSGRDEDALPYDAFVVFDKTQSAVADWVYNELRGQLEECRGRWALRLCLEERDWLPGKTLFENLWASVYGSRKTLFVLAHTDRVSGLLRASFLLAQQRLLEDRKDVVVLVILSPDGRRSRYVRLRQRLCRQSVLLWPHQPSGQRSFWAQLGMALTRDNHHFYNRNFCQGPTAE
Experimental: The following tests were carried out in order to determine the activity of the compounds of formula (I) in HEK293-Blue-hTLR-7/8/9 cells assay.
A stable HEK293-Blue-hTLR-9 cell line was purchased from InvivoGen (Cat.#: hkb-htlr9, San Diego, California, USA). These cells were originally designed for studying the stimulation of human TLR9 by monitoring the activation of NF-κB. A SEAP (secreted embryonic alkaline phosphatase) reporter gene was placed under the control of the IFN-β minimal promoter fused to five NF-κB and. AP-1-binding sites. The SEAP was induced by activating NF-κB and AP-1 via stimulating HEK-Blue hTLR9 cells with TLR9 ligands. Therefore the reporter expression was declined by TLR9 antagonist under the stimulation of a ligand, such as ODN2006 (Cat.#: tlr1-2006-1, Invivogen, San Diego, California, USA), for incubation of 20 his. The cell culture supernatant SEAP reporter activity was determined using QUANTI-Blue™ kit (Cat.#: rep-qb1, Invivogen, San Diego, California, USA) at a wavelength of 640 nm, a detection medium that turns purple or blue in the presence of alkaline phosphatase.
HEK293-Blue-hTLR9 cells were incubated at a density of 250,000-450,000 cells/mL in a volume of 170 μL in a 96-well plate in Dulbecco's Modified Eagle's medium (DMEM) containing 4.5 g/L glucose, 50 U/mL penicillin, […], […], 2 mM L-glutamine, 10% (v/v) heat-inactivated fetal bovine serum with addition of 20 μL test compound in a serial dilution in the presence of final DMSO at 1% and 10 p L of 20uM ODN2006 in above DMEM, perform incubation under 37° C. in a CO2 incubator for 20 hrs. Then 20 μL of the supernatant from each well was incubated with 180 μL Quanti-blue substrate solution at 37° C. for 2 h and the absorbance was read at 620˜655 nm using a spectrophotometer. The signaling pathway that TLR9 activation leads to downstream NF-κB activation has been widely accepted, and therefore similar reporter assay was modified for evaluating TLR9 antagonist.

CYP2D6 = biological target: T2, CYP2D6 (Homo sapiens, UniProt P10635); experiment: CYP inhibition assay in human liver microsome; type: in vitro ADME; settings: liver microsomes, probe dextromethorphan, 10 μM compound, dextromethorphan substrate, percentage inhibition < 0: not or weak inhibitor, read-out: CYP 2D6 inhibition % @10 μM
T2 construct: tissue BD-Gentest 452117; host or cells: human liver microsomes
T2 sequence (P10635 whole entry): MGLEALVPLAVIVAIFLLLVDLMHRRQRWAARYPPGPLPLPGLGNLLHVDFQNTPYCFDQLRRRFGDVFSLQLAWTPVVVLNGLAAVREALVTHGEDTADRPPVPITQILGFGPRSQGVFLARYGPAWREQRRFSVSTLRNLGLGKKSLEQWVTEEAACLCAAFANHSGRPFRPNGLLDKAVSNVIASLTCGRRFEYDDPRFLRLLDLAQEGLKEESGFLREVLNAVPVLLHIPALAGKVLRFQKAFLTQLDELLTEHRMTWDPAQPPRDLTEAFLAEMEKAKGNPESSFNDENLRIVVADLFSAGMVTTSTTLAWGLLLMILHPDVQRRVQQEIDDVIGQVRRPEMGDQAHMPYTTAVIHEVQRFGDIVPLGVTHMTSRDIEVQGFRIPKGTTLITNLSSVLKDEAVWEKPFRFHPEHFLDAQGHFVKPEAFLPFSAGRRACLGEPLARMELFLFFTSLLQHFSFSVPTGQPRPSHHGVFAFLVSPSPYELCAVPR
Experimental: This is a high throughput screening assay used for assessment of reversible inhibition of CYP2D6 activity of test compounds in human liver microsome (HLM) in early discovery stage.
10 mM DMSO stock solutions of test compounds were diluted in DMSO to generate 2 mM intermediate stock solution. 250 nL of intermediate stock solution were transferred in duplicate into 3 separate 384 well microtitre plates (assay-ready plates). A mixture of HLM and each substrate was made up. 45 μL of HLM substrate mix was then transferred to each well of an assay ready plate and mixed. The negative (solvent) and positive control (standard inhibitor for CYP 2D6) were included in each assay ready plate. The assay ready plate was warmed to 37° C. in an incubator over 10 minutes. 5μL pre-warmed NADPH regenerating system was added to each incubation well to start the reaction. Final incubation volume was 50 μL. The assay plate then was placed back in the 37° C. incubator. After 10 minutes incubation, incubates were quenched by addition of 50 μL 100% acetonitrile containing internal standards (20 ng/mL D3-Dextrorphan). The supernatants were collected for RapidFire/MS/MS analysis.
RapidFire online solid phase extraction/sample injection system (Agilent) coupled with API4000 triple quadrupole mass spectrometer (AB Sciex) were used for sample analysis. The mobile phase composed of acetonitrile and water supplemented with 0.1% formic acid. A C4 solid phase extraction cartridge is used for sample separation. MS detection is achieved in positive ion MRM mode.
Peak areas for substrate, metabolite and internal standard are determined using the RapidFire integrator software (version 3.6.12009.12296). Peak area ratios (PAR) of metabolite and internal standard (stable-labelled metabolite) are then calculated. The measurement window for each experiment is then defined:
PAR (0% activity)=average PAR for all incubations containing concentrated inhibitor;
Par (100% activity)=average PAR for all incubations containing no inhibitor (DMSO controls);
% Activity (test inhibitor)
=[PAR(test inhibitor)-PAR(0% activity)]/[PAR(100% activity)-PAR(0% activity)];
% Inhibition (test inhibitor)=100-% Activity (test inhibitor).

SMILES | IC50 (human TLR9) [nM] | inhibition at 10 min, 10 µM (CYP2D6) [%]
C[C@@H]1CN(c2ccc(C#N)c3ncccc23)C[C@H](C)N1Cc1ccc(N2CCNCC2)cc1 [Example 1, 5-[(3R,5S)-3,5-Dimethyl-4-[(4-piperazin-1-ylphenyl)methyl]piperazin-1-yl]quinoline-8-carbonitrile] | 39 | 17
C[C@@H]1CN(c2ccc(C#N)c3ncccc23)C[C@@H](C)N1Cc1ccc(N2CCNCC2)cc1 [Example 2] | 65 | 
C[C@@H]1CN(c2ccc(C#N)c3ncccc23)C[C@H](C)N1Cc1ccc(N2CCNCC2)nc1 [Example 3, 5-[(3R,5S)-3,5-Dimethyl-4-[(6-piperazin-1-yl-3-pyridyl)methyl]piperazin-1-yl]quinoline-8-carbonitrile] | 93 | -2.5
C[C@@H]1CN(c2ccc(C#N)c3ncccc23)C[C@H](C)N1Cc1ncc(N2CCNCC2)cn1 [Example 4, 5-[(3S,5R)-3,5-Dimethyl-4-[(5-piperazin-1-ylpyrimidin-2-yl)methyl]piperazin-1-yl]quinoline-8-carbonitrile] | 137 | 
C[C@@H]1CN(c2ccc(C#N)c3ncccc23)C[C@H](C)N1Cc1ccc(N2CCNCC2)cn1 [Example 5, 5-[(3S,5R)-3,5-Dimethyl-4-[(5-piperazin-1-yl-2-pyridyl)methyl]piperazin-1-yl]quinoline-8-carbonitrile] | 84 | 5.5
C[C@@H]1CN(c2ccc(C#N)c3ncccc23)C[C@H](C)N1Cc1ncc(N2CCN(C(=O)CN(C)C)CC2)cn1 [Example 6, 5-[(3S,5R)-4-[[5-[4-[2-(Dimethylamino)acetyl]piperazin-1-yl]pyrimidin-2-yl]methyl]-3,5-dimethyl-piperazin-1-yl]quinoline-8-carbonitrile] | 139 | 5
C[C@@H]1CN(c2ccc(C#N)c3ncccc23)C[C@H](C)N1Cc1ccc(N2CCN(C)CC2)cn1 [Example 7, 5-[(3S,5R)-3,5-dimethyl-4-[[5-(4-methylpiperazin-1-yl)-2-pyridyl]methyl]piperazin-1-yl]quinoline-8-carbonitrile] | 120 | 
C[C@@H]1CN(c2ccc(C#N)c3ncccc23)C[C@H](C)N1Cc1ccc(N2CC3CNCC(C2)O3)cn1 [Example 8, 5-[(3S,5R)-3,5-Dimethyl-4-[[5-(9-oxa-3,7-diazabicyclo[3.3.1]nonan-3-yl)-2-pyridyl]methyl]piperazin-1-yl]quinoline-8-carbonitrile] | 73 | 12.5
C[C@@H]1CN(c2ccc(C#N)c3ncccc23)C[C@H](C)N1Cc1ccc(N[C@@H]2CNC[C@@H]2F)cn1 [Example 9, 5-[(3R,5S)-3,5-Dimethyl-4-[[5-[[(3R,4S)-4-fluoropyrrolidin-3-yl]amino]-2-pyridyl]methyl]piperazin-1-yl]quinoline-8-carbonitrile] | 47 | -6.5
C[C@@H]1CN(c2ccc(C#N)c3ncccc23)C[C@H](C)N1Cc1ccc(N2CCN(C(=O)C3CCCN3)CC2)cn1 (stereo partly drawn) [Example 10, 5-[(3R,5S)-3,5-Dimethyl-4-[[5-[4-(pyrrolidine-2-carbonyl)piperazin-1-yl]-2-pyridyl]methyl]piperazin-1-yl]quinoline-8-carbonitrile] | 41 | 4.5
C[C@@H]1CN(c2ccc(C#N)c3ncccc23)C[C@H](C)N1Cc1ccc(N2CCN(C(=O)CN(C)C)CC2)cn1 [Example 11, 5-[(3S,5R)-4-[[5-[4-[2-(Dimethylamino)acetyl]piperazin-1-yl]-2-pyridyl]methyl]-3,5-dimethyl-piperazin-1-yl]quinoline-8-carbonitrile] | 96 | 23
C[C@@H]1CN(c2ccc(C#N)c3ncccc23)C[C@H](C)N1Cc1ccc(N2CCNCC2CO)cc1 (stereo partly drawn) [Example 12, 5-[(3R,5S)-4-[[4-[2-(Hydroxymethyl)piperazin-1-yl]phenyl]methyl]-3,5-dimethyl-piperazin-1-yl]quinoline-8-carbonitrile] | 60 | 
C[C@@H]1CN(c2ccc(C#N)c3ncccc23)C[C@H](C)N1CC(=O)N1CCc2nc(N3CCNCC3)ccc2C1 [Example 13, 5-[(3R,5S)-3,5-Dimethyl-4-[2-oxo-2-(2-piperazin-1-yl-7,8-dihydro-5H-1,6-naphthyridin-6-yl)ethyl]piperazin-1-yl]quinoline-8-carbonitrile] | 132 | 
C[C@@H]1CN(c2ccc(C#N)c3ncccc23)C[C@H](C)N1CC(=O)N1CCc2cc(N3CCNCC3)ccc2C1 [Example 14, 5-[(3R,5S)-3,5-Dimethyl-4-[2-oxo-2-(6-piperazin-1-yl-3,4-dihyrdo-1H-isoquinolin-2-yl)ethyl]piperazin-1-yl]quinoline-8-carbonitrile] | 116 | 
C[C@@H]1CN(c2ccc(C#N)c3ncccc23)C[C@H](C)N1CC(=O)N1CCc2ccc(N3CCNCC3)cc2C1 [Example 15, 5-[(3R,5S)-3,5-dimethyl-4-[2-pxp-2-(7-piperazin-1-yl-3,4-dihydro-1H-isoquinolin-2-yl)ethyl]piperazin-1-yl]quinoline-8-carbonitrile] | 94 | 19
C[C@@H]1CN(c2ccc(C#N)c3ncccc23)C[C@H](C)N1CC(=O)N1Cc2ccc(N3CCNCC3)cc2C1 [Example 16, 5-[(3R,5S)-3,5-Dimethyl-4-[2-oxo-2-(5-piperazin-1-ylisoindolin-2-yl)ethyl]piperazin-1-yl]quinoline-8-carbonitrile] | 75 | 2
